Test results taken from US4921871A, “Enolamides, pharmaceutical compositions and methods of use thereof for treating inflammation” (Warner-Lambert Company, priority 1987, dated 1990).
“And” between values parts separate entries of the source, which are not always exact repeats. Equal values may be shown once. Read-outs that look alike come from different tables or passages of the source.

Target: T1, human leukocyte 5-lipoxygenase (Homo sapiens, UniProt P09917)
T1 construct: endogenous in cells; host or cells: leukocytes from fresh human blood
T1 sequence (P09917 1-674): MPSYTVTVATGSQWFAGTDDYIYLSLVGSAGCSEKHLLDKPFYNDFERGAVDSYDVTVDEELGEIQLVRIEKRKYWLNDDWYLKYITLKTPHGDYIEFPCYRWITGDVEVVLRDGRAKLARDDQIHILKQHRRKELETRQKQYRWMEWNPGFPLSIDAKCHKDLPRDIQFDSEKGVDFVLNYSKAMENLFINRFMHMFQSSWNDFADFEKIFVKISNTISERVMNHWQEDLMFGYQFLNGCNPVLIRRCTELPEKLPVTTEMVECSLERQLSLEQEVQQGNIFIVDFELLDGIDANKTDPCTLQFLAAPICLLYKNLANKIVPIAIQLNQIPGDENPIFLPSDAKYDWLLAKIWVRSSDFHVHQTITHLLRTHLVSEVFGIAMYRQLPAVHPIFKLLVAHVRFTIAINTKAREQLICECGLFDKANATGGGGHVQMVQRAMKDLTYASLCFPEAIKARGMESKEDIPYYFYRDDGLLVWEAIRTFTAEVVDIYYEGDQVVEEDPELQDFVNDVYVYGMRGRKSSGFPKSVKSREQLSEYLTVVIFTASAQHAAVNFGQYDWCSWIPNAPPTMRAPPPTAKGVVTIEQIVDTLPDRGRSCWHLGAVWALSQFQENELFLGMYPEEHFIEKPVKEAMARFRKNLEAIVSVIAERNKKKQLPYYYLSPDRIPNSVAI
Assay: 5-Lipoxygenase assay in human leukocytes, formation of 5-HETE (5LOA; 5LOA1 or 5LOA2 not specified)
Type: cell-based
Source text: To Evaluate the Effect of Each Compounds as a 5-Lipoxygenase Inhibitor in Comparison to Standard Reference Agents in Human Leukocytes (5LOAl)
The purpose of this assay is to evaluate the activity of each compound as an inhibitor of human leukocyte 5-lipoxygenase.
Arachidonic acid and calcium ionophore A23l87 are obtained from Sigma (St. Louis, Mo.). Silica gel plates, GF are obtained from Analtech (Newark, Del.). Arachidonic acid, (1-^14 C) and 5-HETE (^3 H), 5 (S)-hydroxy-6-trans, 8,11,14-cis eicosatetraenoic acid, are obtained from New England Nuclear (Boston, Mass.). Six percent Dextran-70 in 0.9% NaCl is obtained from Cutter Labs (Berkeley, Calif.).
Fresh blood from normal adult men who had not received any drugs for at least the previous five days is obtained by the Community Research Clinic (WL/PD) using venipuncture and collected into heparinized vacuotainer tubes. To every 100 ml of pooled blood is added 25 ml of dextran solution (6% dextran -70 in 0.9% sodium chloride containing 3% dextrose) and this is mixed gently in a plastic cylinder. The mixture is left to stand at room temperature for at least 90 minutes. The upper layer which is rich in leukocytes and platelets is then carefully decanted into 50 ml plastic tubes and centrifuged at about 100×g for eight minutes in an IEC centrifuge and rotor number 269 (about 600 rpm). The supernatant fluid is discarded and the pellet is resuspended in 10 ml of 0.87% ammonium chloride for exactly two minutes. This procedure is to lyse completely contaminating red blood cells. Leukocytes are then separated by centrifugation for ten minutes. The pellet is washed three times by suspension in 20 ml PBS (sodium chloride, 7.1 g; Na2 HPO4, 1.15 g; KH2 PO4, 0.2 g, and KCl, 0.2 g/L) and centrifuged as before. The final pellet is suspended in PBS containing 0.87 mM CaCl2. Viability of the cells is then checked using trypan blue exclusion method and is found to be over 90%.
Leukocyte cells in suspension (0.98 ml) are incubated with or without test compounds for five minutes at 37° C. in a shaking water bath. At this time a 17 μl mixture is prepared per 1 ml of cell suspension: 100 mM arachidonic acid, 1 μl, 0.05 μCi ^14 C-arachidonic acid in 5 .rho.l; 1 mM calcium ionophore A23187, 10 μl (1). This mixture is added and the incubation continued for five minutes. The reaction is stopped by adding four volumes of absolute ethanol and the mixture is kept in ice for 30 minutes. The floculated precipitate is separated by centrifugation at about 37,000×g for 20 minutes (Beckman Instruments rotor number 40). The alcohol extract is taken to dryness under a stream of nitrogen and the residue is dissolved in 100-200 μl absolute ethanol. At the time any turbidity is removed by centrifugation. An aliquot (25-50 μl) is applied onto 20×20 cm silica gel TLC plate and developed using the following solvent system: diethyl ether, petroleum ether (2040° C.), acetic acid (50:50: 1 v/v). Zones of 1 cm apart are scraped from the TLC plate and transferred to mini-vials. Methanol (0.5 ml) is added to dissolve the radioactivity adsorbed to the silica gel and scintillation fluid (H.P., Beckman), 5 ml is then added and vials are counted in a liquid scintillation counter. A sample of ^3 H-5-HETE is applied and used for the identification of the formed 5-HETE.
Total radioactivity in the test as well as the control samples are normalized and the amount of 5-HETE present is calculated accordingly.
IC50 values are defined as the concentrations of test agents which caused a 50% inhibition of the formation of 5-HETE as compared to control and are determined by inspection of the concentration-response curves.
The formation of 5-HETE in human leukocytes is considered a measure of 5-lipoxygenase activity. The protocol is described in the following.
Fresh heparinized or EDTA treated human blood is mixed with 6% dextran-3% dextrose in isotonic saline in the ratio 0.25 ml dextran solution per 1.0 ml blood. […]

5LOA, % Inhibition	5LOA, % Inhibition (2.00 E 0 M) [%]	5LOA, % Inhibition (1.00 E -5 M) [%]	5LOA, % Inhibition (2.00 E -5 M)	5LOA, % Inhibition (5.00 E -6 M)	5LOA, % Inhibition (4.00 E -5 M) [%]	5LOA, % Inhibition (8.00 E -5 M) [%]	SMILES
+1.6%	9.2	–	–	–	–	–	COc1ccc(CCc2ccc(NC(=O)C3=C(O)c4ccccc4S(=O)(=O)N3C)cc2)cc1OC [Example 83, N-[4-[2-(3,4-Dimethoxyphenyl)ethyl)phenyl]-4-hydroxy-2-methyl-2H-1,2-benzothiazine-3-carboxamide, 1,1-dioxide]
–	–	15.3	33.7%	6.3%	–	–	O=C(Nc1ccc(CCc2ccc(Cl)c(Cl)c2)cc1)C(=O)c1oc2cc3ccccc3cc2c1O [Example 113, Naphtho[2,3-b]furan-2-acetamide, N-[4-[2-(3,4-dichlorophenyl)ethyl]phenyl]-3-hydroxy-α-oxo]
–	–	–	42.5%	36.0%	–	–	O=C(Nc1ccc(CCc2ccc(Cl)c(Cl)c2)cc1)c1sc2ccccc2c1O [Example 144]
–	–	–	19.0%	+7.3%	–	–	O=C(Nc1ccc(CCc2cc(C(F)(F)F)cc(C(F)(F)F)c2)cc1)c1sc2ccccc2c1O [Example 148, Benzo[b]thiophene-2-carboxamide, N-[4-[2-[3,5-bis-(trifluoromethyl)phenyl]ethyl]phenyl]-3-hydroxy]
–	–	13.9	–	–	18.0	–	CCCCCCCCCCc1ccc(NC(=O)C(=O)C2=C(O)c3ccccc3OC2)cc1 [Example 151, N-(4-Decylphenyl)-4-hydroxy-α-oxo-2H-1-benzopyran-3-acetamide]
–	–	23.0	38.1% and 33.9%	–	76.3	79.2	COc1ccc(CCc2ccc(NC(=O)C(=O)C3=C(O)c4ccccc4OC3)cc2)cc1OC [Example 152]
–	–	–	10.1%	+7.6%	2.3	–	O=C(Nc1ccc(CCc2ccc(Cl)c(Cl)c2)cc1)C(=O)C1=C(O)c2ccccc2OC1 [Example 155, 2H-1-Benzopyran-3-acetamide, N-[4-[2-(3,4-dichlorophenyl)ethyl]phenyl]-4-hydroxy-α-oxo]
